This is an account of results in US4760052A, “1,6-dicarba-vasopressin compounds” (Smithkline Beckman Corporation, priority 1987, dated 1988).

Structures are written as SMILES. *1 amine or outer side, *2 acyl side, *3 side chain or, on linkers, in order; H or OH if unused. Where a SMILES comes first, the peptide text is derived from it. Bridges are numbered along the chain shown (N, C = ends). [ ]: non-standard residue; d: D form. X1 = O=C(CC1(S[*:2])CCCCC1)[*:1]

The Ki is a dissociation constant, usually derived from enzyme kinetics or from competition with a known ligand. High values mean lower affinity, low ones higher affinity.

Experiment [1] deals with vasopressin receptors (V2 -receptors) (Sus scrofa, UniProt P32307). Briefly: biochemical.
Method: Antagonistic activity toward the natural anti-diuretic hormone (anti ADH activity) is determined, in vitro, in the medullary tissue of hog or human kidneys and, in vivo, in the hydropenic rat.
These values represent total and non specific binding, respectively.
For experiment [2], the system named is hydropenic rat. Briefly: Hydropenic Rat Screen (anti-ADH activity in vivo). The note with it: intraperitoneal, dose required to lower urine osmolality to 300 m-Osmoles/kg. The protocol: The assay for anti-ADH activity in vivo is the hydropenic rat protocol described below:
Food and water are removed from male rats approximately 18 hours prior to testing. Animals are housed 4 per metabolism cage. At 0 hour, the test compound is administered intraperitoneally to the test group and an equivalent volume of vehicle is administered to both control groups (fasted and non-fasted). Urine volume and osmolality are measured every hour for 4 hours. Test values are recorded as ml of urine excreted (cumulative), mEg/rat electrolyte excreted, mg/rat urea excreted, and osmolality in milli-Osmoles/kg H2 O. A […] is used to determine significance. ED300 is defined as the dose of compound (μg/kg) required to lower urine osmolality to 300 m-Osmoles/kg.

Experiment [3] concerns the target vasopressin stimulated adenylate cyclase. Nature of the experiment: vasopressin stimulated adenylate cyclase activity, kidney medullary membrane. Format: biochemical. The note with it: Swine; antagonism of vasopressin stimulated adenylate cyclase. The protocol:
In the test procedure for assay of adenylate cyclase activity, the amount of ^32 P/cAMP formed in the absence of medullary membrane is determined (blank). The blank value is subtracted from all experimental data. The compound is tested for its effect on basal adenylate cyclase activity and/or on vasopressin stimulated activity. Each determination is carried out in triplicate. The Ka value is derived from a Lineweaver-Burkeplot. Rel. Vmax =(Vmax drug/Vmax vasopressin) x 100. Ki =I/[Ka'/Ka)-1] where I is the concentration of the antagonist and Ka' and Ka are the concentrations of vasopressin required to give half maximal activity of adenylate cyclase in the presence and absence of antagonist, respectively.

vasopressin receptors (V2 -receptors), sequence (P32307 whole entry): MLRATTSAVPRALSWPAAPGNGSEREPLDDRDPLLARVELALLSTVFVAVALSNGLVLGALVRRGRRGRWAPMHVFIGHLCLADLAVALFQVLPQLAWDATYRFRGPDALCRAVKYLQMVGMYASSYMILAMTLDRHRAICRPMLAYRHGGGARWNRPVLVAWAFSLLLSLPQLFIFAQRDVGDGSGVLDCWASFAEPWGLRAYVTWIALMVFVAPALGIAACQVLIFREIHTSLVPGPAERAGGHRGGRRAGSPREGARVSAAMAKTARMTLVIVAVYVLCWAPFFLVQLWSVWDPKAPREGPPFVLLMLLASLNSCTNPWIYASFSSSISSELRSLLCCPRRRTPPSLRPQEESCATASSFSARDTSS

The compound `CCOc1ccc(C[C@H]2NC(=O)CC3(CCCCC3)CCC[C@H](C(=O)N3CCC[C@H]3C(=O)N[C@@H](CCCNC(=N)N)C(N)=O)NC(=O)[C@H](CC(N)=O)NC(=O)[C@H](C(C)C)NC(=O)[C@H](Cc3ccccc3)NC2=O)cc1` [Compound D, [1,6(6,6-cyclopentamethylene-2-amino-D-suberic acid)2-(O--ethy1D-tyrosine)-4-valine-9-desglycine]vasopressin] had a Kb in experiment [1] of 72 nM. In experiment [2], `CCOc1ccc(C[C@H]2NC(=O)CC3(CCCCC3)CCC[C@@H](C(=O)N3CCC[C@H]3C(=O)N[C@@H](CCCNC(=N)N)C(N)=O)NC(=O)[C@H](CC(N)=O)NC(=O)[C@H](C(C)C)NC(=O)[C@H](Cc3ccccc3)NC2=O)cc1` [Compound C, [1,6(6,6-cyclopentamethylene-2-amino-L-suberic acid)2-(O--ethylD-tyrosine)-4-valine-9-desglycine]vasopressin] had an ED300 of 8.9 µg/kg. Besides, the Kb in experiment [1] was 8.2 nM. This compound also displayed a Ki in experiment [3] of 4.3 nM. In turn, `CCOc1ccc(C[C@H]2NC(=O)CC3(CCCCC3)SSC[C@@H](C(=O)N3CCC[C@H]3C(=O)N[C@@H](CCCNC(=N)N)C(N)=O)NC(=O)[C@H](CC(N)=O)NC(=O)[C@H](C(C)C)NC(=O)[C@H](Cc3ccccc3)NC2=O)cc1` [A, [1(mercapto-β,cyclopentamethylenepropionic acid)2-(O--ethylD-tyrosine)-4-valine-8-arginine-9-desglycine]vasopressin, reference compound] ([dY](Et)FVNCPR-NH2; linker N-5 via X1) had a Kb in experiment [1] of 12 nM. Still for that read-out and setting: next, `CCOc1ccc(C[C@H]2NC(=O)CC3(CCCCC3)SSC[C@H](C(=O)N3CCC[C@H]3C(=O)N[C@@H](CCCNC(=N)N)C(N)=O)NC(=O)[C@H](CC(N)=O)NC(=O)[C@H](C(C)C)NC(=O)[C@H](Cc3ccccc3)NC2=O)cc1` [B, reference compound] ([dY](Et)FVN[dC]PR-NH2; linker N-5 via X1): 170 nM.
